Converted amounts (≈) assume the structure as drawn. Like-named read-outs stand apart in the source and are kept apart here.
What was measured:
[1] = High throughput Caco-2 permeability; format: in vitro ADME; conditions: human, 10 μmol/l, 2 h, 37° C.
Procedure: (§1) High throughput Caco-2 permeability was performed in the TranswellR 0.4 μm polycarbonate membrane 96-well system with modified methods. Caco-2 cells were maintained at 37° C. in a humidified incubator with an atmosphere of 5% CO2. The cells were cultured in 75 cm^2 flasks with Dulbecco's Modified Eagle's Medium (DMEM) containing 10% (v/v) FBS, 1% (v/v) non-essential amino acids (NEAA), 100 units/ml of penicillin, and 100 μg/ml of streptomycin. The Caco-2 cells were seeded onto inserts at a density of 2×10^4 cells/insert separately. The medium in the wells was exchanged each other day, and the trans epithelial electrical resistance (TEER) value was measured using an epithelial voltohm meter (Millipore, Billerica, Massachusetts). […] For transport experiments, each cultured monolayer on the 96-well plate was washed twice with a transport buffer (HBSS containing 25 mM HEPES, pH 7.4). The permeability assay was initiated by the addition of each compound solution (10 μmol/l) into inserts (apical side, A) or receivers (basolateral side, B). The Caco-2 cell monolayers were incubated for 2 h at 37° C. Fractions were collected from receivers (if apical to basal permeability) or inserts (if basal to apical permeability), and concentrations were assessed by UPLC/MS (Waters; Milford, MA). All compounds were tested in triplicates. The A→B (or B→A) apparent permeability coefficients (Papp) of each compound were calculated using the equation, Papp=dQ/dt×1/AC0, where dQ/dt equals the flux of a drug across the monolayer, A equals the total insert well surface area, and C0 is the initial concentration of substrate in the donor compartment. The efflux ratio was determined by dividing the Papp in the B-A direction by the Papp in the A-B direction.

[2] = Solubility assay (μSOL Evolution, UV); format: physicochemical; conditions: 18 h at RT in buffer; for solubility at 18 h: aqueous buffer, kinetic from dmso stock
Procedure: Solubility assays were carried out on a Biomek FX lab automation workstation (Beckman Coulter, Inc., Fullerton, CA) using SOL Evolution software (pION Inc., Woburn, MA). The detailed method is described as follows. 10 μl of 10 mM compound stock (in DMSO) was added to 190 μl 1-propanol to make a reference stock plate. 5 μl from this reference stock plate were mixed with 70 μl 1-propanol and 75 μl citrate phosphate-buffered saline (PBS; isotonic) to make the reference plate, and the UV spectrum (250-500 nm) of the reference plate was read. 6 μl of 10 mM test compound stock was added to 594 μl buffer in a 96-well storage plate and mixed. The storage plate was sealed and incubated at RT for 18 h. The suspension was then filtered through a 96-well filter plate (pION Inc., Woburn, MA). 75 μl of filtrate was mixed with 75 μl 1-propanol to make the sample plate, and the UV spectrum of the sample plate was read. Calculations were carried out with μSOL Evolution software based on the area under the curve (AUC) of the UV spectrum of the sample and reference plates. All compounds were tested in triplicate.

[3] = target: interaction between GST-MAGEA11 MHD and FAM-PCF11_4 peptide (MAGE-A11:PCF11) (Homo sapiens (Human), UniProt P43364); experiment: TR-FRET dose response competition assay for disruption of MAGE-A11:PCF11 binding
Sequence of interaction between GST-MAGEA11 MHD and FAM-PCF11_4 peptide (MAGE-A11:PCF11) (P43364 218-429): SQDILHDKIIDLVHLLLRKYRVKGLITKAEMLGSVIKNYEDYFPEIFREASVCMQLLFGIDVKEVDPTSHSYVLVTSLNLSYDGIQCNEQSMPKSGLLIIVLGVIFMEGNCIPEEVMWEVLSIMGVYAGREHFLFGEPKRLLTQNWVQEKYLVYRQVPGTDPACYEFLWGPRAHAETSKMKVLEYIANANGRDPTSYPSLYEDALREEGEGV
Outline: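 Competition TR-FRET at room temperature in 50 mM Tris pH 7.5, 20 mM MgCl2, 0.1 mg/ml BSA, 1 mM DTT: final 5 nM GST-MAGEA11 MHD, 5 nM Tb-anti-GST, 200 nM FAM-PCF11_4, 90 min. Ratio 520/490 nm converted to % inhibition; IC50 from sigmoidal fit.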

MAGE-A11:PCF11 = MAGE-A11:PCF11 (Homo sapiens (Human), UniProt P43364); experiment: TR-FRET single point screening at 15 μM; format: binding; design: unit not given here; conditions: single point TR-FRET screening at 15 μM against MAGE-A11:PCF11
Sequence of MAGE-A11:PCF11 (P43364 218-429): as above
Outline: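 Single-point screen at 15 μM (0.25% DMSO) measuring disruption of GST-MAGEA11 (5 nM) binding to FAM-PCF11_4 peptide (200 nM) detected by Tb-anti-GST (5 nM). Buffer 50 mM Tris pH 7.5, 20 mM MgCl2, 0.1 mg/ml BSA, 1 mM DTT; 90 min at ~25 °C; 520/490 nm ratio converted to % inhibition versus controls.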

Caco-2 cell monolayers = experiment: High throughput Caco-2 permeability; format: in vitro ADME
Procedure: as §1

[4] = Caco-2, pH 7.4, apical to basolateral, read-out: Caco-2 permeability, A/B
[5] = Caco-2, pH 7.4, basolateral to apical, read-out: Caco-2 permeability, B/A
[6] = Table 6, 4-aminoquinoline compounds, read-out: TR-FRET, IC50
[7] = Table 8, representative compounds, read-out: TR-FRET IC50
[8] = read-out: IC50 by TR-FRET for disrupting MAGE-A11:PCF11 interaction

Row | Compound | Papp at 2 h, 10 μmol/l [1, 4] | Papp at 2 h, 10 μmol/l [1, 5] | solubility at 18 h [2] | IC50 [3, 6] | IC50 [3, 7] | Solubility [2] | IC50 [3, 8] | TR-FRET signal (MAGE-A11:PCF11) | cell permeability (Caco-2 cell monolayers)
1 | Clc1ccc2c(NCCCNCc3ccc4[nH]ccc4c3)ccnc2c1 [SJ000520909-03, N^1-((1H-Indol-5-yl)methyl)-N^3-(7-chloroquinolin-4-yl)propane-1,3-diamine] | 19.6 ×10⁻⁶ cm/s | 21.3 ×10⁻⁶ cm/s | 59.8 µM (≈ 21.8 µg/mL) | 240 nM | 67100 nM | – | – | – | –
2 | CC(C)(C)c1ccc(-c2ccc3c(NCCCNCc4ccco4)ccnc3c2)cc1 [SJ000311286-01] | 0.578 ×10⁻⁶ cm/s | 0.12 ×10⁻⁶ cm/s | – | – | – | 56.16 µM (≈ 23.2 µg/mL) | 1160 nM | – | –
3 | Brc1ccc2c(NCCCNCc3ccc4[nH]ccc4c3)ccnc2c1 [SJ001008065-01, N^1-((1H-Indol-5-yl)methyl)-N^3-(7-bromoquinolin-4-yl)propane-1,3-diamine] | 18.3 ×10⁻⁶ cm/s | 19.3 ×10⁻⁶ cm/s | 57.1 µM (≈ 23.4 µg/mL) | 620 nM | – | – | – | – | –
4 | FC(F)(F)c1ccc2c(NCCCNCc3ccc4c(c3)OCO4)ccnc2c1 [SJ000361106-02, N^1-(Benzo[d][1,3]dioxol-5-ylmethyl)-N^3-(7-(trifluoromethyl)quinolin-4-yl)propane-1,3-diamine] | 47 ×10⁻⁶ cm/s | 40 ×10⁻⁶ cm/s | 129 µM (≈ 51.9 µg/mL) | > 74000 nM | 69900 nM | – | – | – | –
5 | FC(F)(F)c1ccc2c(NCCCNCc3ccco3)ccnc2c1 [SJ000361113-02, N^1-(Furan-2-ylmethyl)-N^3-(7-(trifluoromethyl)quinolin-4-yl)propane-1,3-diamine] | 50.2 ×10⁻⁶ cm/s | 40.1 ×10⁻⁶ cm/s | 119 µM (≈ 41.6 µg/mL) | > 70000 nM | – | – | – | – | –
6 | CCCN(CCCCNc1ccnc2cc(Cl)ccc12)Cc1cc(Br)ccc1O [SJ000311196] | – | – | – | – | 69900 nM | – | – | 5.724 | –
7 | Cn1ccc2cc(CNCCCNc3ccnc4cc(C(F)(F)F)ccc34)ccc21 [SJ001008067-01, N^1-((1-Methyl-1H-indol-5-yl)methyl)-N^3-(7-(trifluoromethyl)quinolin-4-yl)propane-1,3-diamine] | 21.4 ×10⁻⁶ cm/s | 12.3 ×10⁻⁶ cm/s | 19.4 µM (≈ 8 µg/mL) | 1160 nM | – | – | – | – | –
8 | CC(C)(C)c1ccc(-c2ccc3c(NCCCNCc4ccc5[nH]ccc5c4)ccnc3c2)cc1 [SJ001008068-01, N^1-((1H-Indol-5-yl)methyl)-N^3-(7-(4-(tert-butyl)phenyl)quinolin-4-yl)propane-1,3-diamine] | 0.368 ×10⁻⁶ cm/s | 1.54 ×10⁻⁶ cm/s | 0.67 µM (≈ 0.31 µg/mL) | 130 nM | – | – | – | – | –
9 | C=CC(=O)N(CCCNc1ccnc2ccccc12)Cc1ccc2[nH]ccc2c1 [SJ001009807-01, N-((1H-Indol-5-yl)methyl)-N-(3-(quinolin-4-ylamino)propyl)acrylamide] | 2.73 ×10⁻⁶ cm/s | 18.9 ×10⁻⁶ cm/s | 34.8 µM (≈ 13.4 µg/mL) | 3500 nM | – | – | – | – | –
10 | FC(F)(F)c1cc(-c2ccc3c(NCCCNCc4ccco4)ccnc3c2)cc(C(F)(F)F)c1 [SJ000311270-01] | 0.326 ×10⁻⁶ cm/s | 0.079 ×10⁻⁶ cm/s | – | 580 nM | – | 61.08 µM (≈ 30.1 µg/mL) | – | – | –
11 | FC(F)(F)c1cc(-c2ccc3c(NCCCNCc4ccc5[nH]ccc5c4)ccnc3c2)cc(C(F)(F)F)c1 [SJ001008069-01, N^1_((1H-Indol-5-yl)methyl)-N^3-(7-(3,5-bis(trifluoromethyl)phenyl)quinolin-4-yl)propane-1,3-diamine] | 0.498 ×10⁻⁶ cm/s | 0.229 ×10⁻⁶ cm/s | 0.12 µM (≈ 0.0651 µg/mL) | 200 nM | – | – | – | – | –
12 | c1ccc2c(NCCCNCc3ccc4[nH]ccc4c3)ccnc2c1 [SJ001008066-01, N^1-((1H-Indol-5-yl)methyl)-N^3-(quinolin-4-yl)propane-1,3-diamine] | 8.17 ×10⁻⁶ cm/s | 8.09 ×10⁻⁶ cm/s | – | – | – | 37.77 µM (≈ 12.5 µg/mL) | 130 nM | – | cell permeable
